Data as given in PMC6032384 (International Journal of Molecular Sciences, 2018).
Read-outs that look alike come from different tables or passages of the source.

Legend:
[1] = tested on: MRC-5 (human lung fibroblast); assay: Alamar blue (AB) cytotoxicity assay, MRC-5 noncancerous cells; format: cell-based; details: MRC5 non-cancer cells, 72 h
[2] = tested on: PBMC (human peripheral blood mononuclear cell); assay: Alamar blue (AB) cytotoxicity assay, PBMC noncancerous cells; format: cell-based; details: PBMC non-cancer cells, 72 h
[3] = tested on: BAD gene knockout immortalized mouse embryonic fibroblasts (BAD KO SV40 MEF); assay: Alamar blue (AB) cytotoxicity assay, BAD KO SV40 MEF; format: cell-based; details: Mus musculus, Fibroblast, 72 h
[4] = tested on: wild-type immortalized mouse embryonic fibroblasts (WT SV40 MEF); assay: Alamar blue (AB) cytotoxicity assay, WT SV40 MEF; format: cell-based; details: Mus musculus, Fibroblast, 72 h
HL-60 cells [5] = assay: Cell morphology (May-Grunwald-Giemsa staining) and light scattering by flow cytometry; format: cell-based, human; details: positive controls, DOX 2 µM, OXA 2.5 µM
HL-60 cells [6] = format: cell-based, human; details: for DNA fragmentation (in words): positive controls, DOX 2 µM, 24 and 48 h
Experimental: The internucleosomal DNA fragmentation and cell cycle distribution were assessed in HL-60 cells after 24 and 48 h of incubation with the [Ru(PPh3)2(Thy)(bipy)]PF6 complex in a DNA content-based assay using the dye propidium iodide (PI) and flow cytometry (Table 3). All DNA with a subdiploid size (sub-G0/G1) were considered to be fragmented. At concentrations of 1, 2, and 4 μM, the complex led to, respectively, 19.4%, 30.1%, and 36.2% DNA fragmentation after 24 h of incubation and to 12.5%, 26.7%, and 58.2% DNA fragmentation after 48 h of incubation.
(§1) Light scattering features were determined by flow cytometry. The internucleosomal DNA fragmentation and cell cycle distribution were determined according to Nicoletti et al.. For apoptosis measurements, a FITC Annexin V Apoptosis Detection Kit I (BD Biosciences, San Jose, CA, USA) was used, and the analysis was performed, according to the manufacturer’s instructions. A protection assay using the pan-caspase inhibitor Z-VAD(OMe)-FMK (Cayman Chemical, Ann Arbor, MI, USA) was also evaluated. The mitochondrial transmembrane potential was determined by the retention of the dye rhodamine 123 [28]. The levels of ROS were measured, as previously described, using 2′,7′-dichlorofluorescin diacetate (DCF-DA, Sigma-Aldrich Co.). At least 1 × 10^4 events were recorded per sample using a BD LSRFortessa cytometer along with BD FACSDiva Software (BD Biosciences) and Flowjo Software 10 (Flowjo LCC, Ashland, OR, USA). The cellular debris was omitted from the analysis.

HL-60 cells [7] = assay: Annexin V-FITC/PI apoptosis assay by flow cytometry; format: cell-based, human; details: annexin V-FITC/PI, 24 and 48 h
Experimental: Additionally, annexin V, which is a Ca^2+-dependent protein with high affinity for phosphatidylserine, was conjugated to a fluorochrome to detect phosphatidylserine exposure using flow cytometry. Since phosphatidylserine exposure precedes the loss of membrane integrity, annexin V staining was used along with the dye PI to identify early and late apoptotic cells, as well as necrotic cells. Therefore, annexin V-FITC/PI double staining was applied to HL-60 cells that were treated with the [Ru(PPh3)2(Thy)(bipy)]PF6 complex after 24 and 48 h of incubation, and the numbers of viable, early apoptotic, late apoptotic, and necrotic cells were quantified by flow cytometry (Figure 5).
Figure 5 Evaluation of the apoptosis induced by the [Ru(PPh3)2(Thy)(bipy)]PF6 complex (CRT) in HL-60 cells determined by flow cytometry using annexin V-FITC/PI staining after 24 and 48 h of incubation. (A) Representative flow cytometry dot plots. (B) Apoptotic cell quantification (annexin V-FITC positive cells). […] Data are presented as the mean ± S.E.M. of at the least three independent experiments. * p < 0.05 as compared with the negative control by ANOVA, followed by the Student Newman-Keuls test. […] Its quadrant percentages are just as hard to read: 24 h about Q1 0.640%, Q2 5.23%, Q4 85.6%, Q3 8.47%; 48 h about Q1 0.430%, Q2 3.07%, Q4 91.0%, Q3 5.52%.
as §1

HL-60 cells [8] = details: 2 μM, TBE

COc1cccc2c1C(=O)c1c(O)c3c(c(O)c1C2=O)C[C@@](O)(C(=O)CO)C[C@@H]3O[C@H]1C[C@H](N)[C@H](O)[C@H](C)O1 [DOX, Doxorubicin, reference compound]
IC50 ([1]; Homo sapiens): 1500 nM
IC50 ([2]; Homo sapiens): 5.1 µM
IC50 [3]: 1300 nM
IC50 [4]: 800 nM
Type of cell death (HL-60 cells [5]): caused cell death by apoptosis
DNA content G0/G1 (HL-60 cells [6]; 2 µM, 24 h): 19.9 ± 2.5 %
DNA content G2/M (HL-60 cells [6]; 2 µM, 24 h): 8.9 ± 1.5 %
DNA content S (HL-60 cells [6]; 2 µM, 24 h): 6.6 ± 1.6 %
DNA content Sub-G0/G1 (DNA fragmentation) (HL-60 cells [6]; 2 µM, 24 h): 58.6 ± 2.5 %
DNA content G0/G1 (HL-60 cells [6]; 2 µM, 48 h): 21.9 ± 3.0 %
DNA content G2/M (HL-60 cells [6]; 2 µM, 48 h): 3.8 ± 0.9 %
DNA content S (HL-60 cells [6]; 2 µM, 48 h): 6.5 ± 0.6 %
DNA content Sub-G0/G1 (DNA fragmentation) (HL-60 cells [6]; 2 µM, 48 h): 65.4 ± 2.8 %
DNA fragmentation (in words) (HL-60 cells [6]; OXA 2.5 µM): induced DNA fragmentation
Percentage of apoptotic cells (early apoptotic cells + late apoptotic cells) (HL-60 cells [7]): caused an increase
Reduction of the number of viable cells (HL-60 cells [8]; 24 h): 58.0%
Reduction of the number of viable cells (HL-60 cells [8]; 48 h): 88.1%

O=C1[O][Pt]2([NH][C@@H]3CCCC[C@H]3[NH]2)[O]C1=O [OXA, Oxaliplatin, reference compound]
IC50 [1]: 1300 nM
IC50 [2]: 9.4 µM
Type of cell death (HL-60 cells [5]): caused cell death by apoptosis
DNA content G0/G1 (HL-60 cells [6]; 2.5 µM, 24 h): 31.4 ± 3.0 %
DNA content G2/M (HL-60 cells [6]; 2.5 µM, 24 h): 26.0 ± 3.6 %
DNA content S (HL-60 cells [6]; 2.5 µM, 24 h): 11.6 ± 2.3%
DNA content Sub-G0/G1 (DNA fragmentation) (HL-60 cells [6]; 2.5 µM, 24 h): 21.9 ± 3.3 %
DNA content G0/G1 (HL-60 cells [6]; 2.5 µM, 48 h): 42.9 ± 2.8 %
DNA content G2/M (HL-60 cells [6]; 2.5 µM, 48 h): 19.1 ± 3.3%
DNA content S (HL-60 cells [6]; 2.5 µM, 48 h): 14.2 ± 1.2%
DNA content Sub-G0/G1 (DNA fragmentation) (HL-60 cells [6]; 2.5 µM, 48 h): 18.4 ± 4.4 %
Cell cycle arrest (HL-60 cells [6]; OXA 2.5 µM): cell cycle arrest at the G2/M phase
DNA fragmentation (in words) (HL-60 cells [6]; OXA 2.5 µM): induced DNA fragmentation
Percentage of apoptotic cells (early apoptotic cells + late apoptotic cells) (HL-60 cells [7]): caused an increase
